Test results published in patent publication US10160747B2, “Compounds and methods for kinase modulation, and indications therefor” (Plexxikon Inc., priority 2016, dated 2018).

Legend:
BA/F3-FLT3-ITD + D835Y = molecular target: T1, BA/F3-FLT3-ITD + D835Y (Homo sapiens, UniProt P36888, D835Y, cells depend on it, form not given); test: Engineered BA/F3 cell growth assay, FLT3 ITD/D835Y; format: cell-based, murine; conditions: 3 d growth
T1 sequence (P36888 with tags, fused parts or gaps INS600HVDFREYEYD/D835Y): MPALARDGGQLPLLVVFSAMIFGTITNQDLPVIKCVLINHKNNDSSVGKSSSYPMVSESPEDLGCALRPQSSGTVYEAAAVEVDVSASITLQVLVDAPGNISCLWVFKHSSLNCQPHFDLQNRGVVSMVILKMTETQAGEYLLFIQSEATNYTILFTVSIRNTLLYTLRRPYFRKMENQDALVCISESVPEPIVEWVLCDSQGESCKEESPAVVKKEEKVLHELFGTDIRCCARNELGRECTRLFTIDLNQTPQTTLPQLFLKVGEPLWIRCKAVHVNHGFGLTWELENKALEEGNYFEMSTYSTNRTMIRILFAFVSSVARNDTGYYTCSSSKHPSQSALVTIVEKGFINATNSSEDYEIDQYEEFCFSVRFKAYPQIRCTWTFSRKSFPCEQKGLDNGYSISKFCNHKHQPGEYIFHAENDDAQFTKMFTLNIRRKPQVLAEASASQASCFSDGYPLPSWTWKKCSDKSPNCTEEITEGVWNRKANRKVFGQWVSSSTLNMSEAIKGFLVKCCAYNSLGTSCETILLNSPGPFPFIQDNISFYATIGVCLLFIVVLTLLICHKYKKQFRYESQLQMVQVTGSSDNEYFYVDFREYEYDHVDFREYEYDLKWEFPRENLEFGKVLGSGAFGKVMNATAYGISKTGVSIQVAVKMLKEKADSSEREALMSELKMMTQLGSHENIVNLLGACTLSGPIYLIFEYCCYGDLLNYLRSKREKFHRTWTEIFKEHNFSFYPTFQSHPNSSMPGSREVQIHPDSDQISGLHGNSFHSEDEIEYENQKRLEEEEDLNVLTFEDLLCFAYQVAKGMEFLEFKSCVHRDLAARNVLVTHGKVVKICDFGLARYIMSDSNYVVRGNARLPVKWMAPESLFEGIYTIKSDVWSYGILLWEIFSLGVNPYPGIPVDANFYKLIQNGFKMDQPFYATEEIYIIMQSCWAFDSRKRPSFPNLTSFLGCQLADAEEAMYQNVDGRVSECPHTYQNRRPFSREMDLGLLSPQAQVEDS
Outline: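 IC50 derived from CellTiter-Glo ATP luminescence after 3 days at 37 °C, 5% CO2, over eight 1:3 dilutions from 1 μM (0.2% DMSO final). Cells: IL-3-independent murine Ba/F3 expressing full-length FLT3 ITD/D835Y, 1×10^4 per well.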

[1] = test system: MOLM-14 D835Y (endogenous FLT3 ITD and transfected FLT3 D835Y); test: MOLM-14 D835Y cell proliferation assay (CellTiter-Glo); format: cell-based; conditions: Homo sapiens, MOLM-14, 72 h; 3 d growth, GMean
Outline: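 MOLM-14 cells (FLT3 ITD) carrying D835Y or F691L, 1×10^4 cells/well, eight 1:3 dilutions from 1 μM final, 0.2% DMSO, 3 days at 37 °C, 5% CO2. Viability by CellTiter-Glo luminescence (ATP content); IC50 from concentration-response.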

Compound | GI50 (BA/F3-FLT3-ITD + D835Y) | IC50 [1]
CC(C)(O)C#Cc1cc2cc(-c3ccc(CC(=O)Nc4cncc(C(F)(F)F)c4)cc3)cnc2[nH]1 [Compound P-0204, 2-[4-[2-(3-hydroxy-3-methyl-but-1-ynyl)-1H-pyrrolo[2,3-b]pyridin-5-yl]phenyl]-N-[5-(trifluoromethyl)-3-pyridyl]acetamide] | 0.0001 to 10 µM | 0.0001 to 10 µM
COCCn1cc(Nc2ncc(-c3ccc(CC(=O)Nc4cc(C(F)(F)F)ccn4)cc3)cn2)cn1 [Compound P-0222, 2-[4-[2-[[1-(2-methoxyethyl)pyrazol-4-yl]amino]pyrimidin-5-yl]phenyl]-N-[4-(trifluoromethyl)-2-pyridyl]acetamide] | 0.0001 to 10 µM | 0.0001 to 10 µM
Cc1ncc(NC(=O)Cc2ccc(-c3cnc(Nc4cnn(C(F)F)c4)nc3)cc2)cc1C(F)(F)F [Compound P-0210, 2-[4-[2-[[1-(difluoromethyl)pyrazol-4-yl]amino]pyrimidin-5-yl]phenyl]-N-[6-methyl-5-(trifluoromethyl)-3-pyridyl]acetamide] | 0.0001 to 10 µM | 0.0001 to 10 µM
O=C(Cc1ccc(-c2cnc3[nH]c(-c4ccnc(N5CCOCC5)c4)cc3c2)c(F)c1)Nc1cncc(C(F)(F)F)c1 [Compound P-0201, 2-[3-fluoro-4-[2-(2-morpholino-4-pyridyl)-1H-pyrrolo[2,3-b]pyridin-5-yl]phenyl]-N-[5-(trifluoromethyl)-3-pyridyl]acetamide] | 0.0001 to 10 µM | 0.0001 to 10 µM
O=C(Cc1ccc(-c2cnc(Nc3cnn(C4CC4)c3)nc2)cc1)Nc1cc(C(F)(F)F)ccn1 [Compound P-0237, 2-[4-[2-[(1-cyclopropylpyrazol-4-yl)amino]pyrimidin-5-yl]phenyl]-N-[4-(trifluoromethyl)-2-pyridyl]acetamide] | 0.0001 to 10 µM | 0.0001 to 10 µM
COc1ncc(NC(=O)Cc2ccc(-c3cnc(Nc4cnn(C(F)F)c4)nc3)cc2)cc1C(F)(F)F [Compound P-0211, 2-[4-[2-[[1-(difluoromethyl)pyrazol-4-yl]amino]pyrimidin-5-yl]phenyl]-N-[6-methoxy-5-(trifluoromethyl)-3-pyridyl]acetamide] | 0.0001 to 10 µM | 0.0001 to 10 µM
Cn1cc(Nc2ncc(-c3cc(F)c(CC(=O)Nc4cc(C(F)(F)F)ccn4)cc3F)cn2)cn1 [Compound P-0019, 2-[2,5-difluoro-4-[2-[(1-methylpyrazol-4-yl)amino]pyrimidin-5-yl]phenyl]-N-[4-(trifluoromethyl)-2-pyridyl]acetamide] | 0.0001 to 10 µM | 0.0001 to 10 µM
CCOc1n[nH]c2ncc(-c3ccc(CC(=O)Nc4cnc(C)c(C(F)(F)F)c4)cc3)cc12 [Compound P-0217, 2-[4-(3-ethoxy-1H-pyrazolo[3,4-b]pyridin-5-yl)phenyl]-N-[6-methyl-5-(trifluoromethyl)-3-pyridyl]acetamide] | 0.0001 to 10 µM | 0.0001 to 10 µM
COc1ncc(NC(=O)Cc2ccc(-c3cnc(Nc4cnn(C)c4)nc3)c(F)c2)cc1C(F)(F)F [Compound P-0206, 2-[3-fluoro-4-[2-[(1-methylpyrazol-4-yl)amino]pyrimidin-5-yl]phenyl]-N-[6-methoxy-5-(trifluoromethyl)-3-pyridyl]acetamide] | 0.0001 to 10 µM | 0.0001 to 10 µM
Cc1ncc(NC(=O)Cc2ccc(-c3cnc(Nc4cnn(C5CC5)c4)nc3)cc2)cc1C(F)(F)F [Compound P-0232, 2-[4-[2-[(1-cyclopropylpyrazol-4-yl)amino]pyrimidin-5-yl]phenyl]-N-[6-methyl-5-(trifluoromethyl)-3-pyridyl]acetamide] | 0.0001 to 10 µM | 0.0001 to 10 µM
COc1ncc(NC(=O)Cc2ccc(-c3cnc4[nH]nc(N)c4c3)c(F)c2)cc1C(F)(F)F [Compound P-0203, 2-[4-(3-amino-1H-pyrazolo[3,4-b]pyridin-5-yl)-3-fluoro-phenyl]-N-[6-methoxy-5-(trifluoromethyl)-3-pyridyl]acetamide] | 0.0001 to 10 µM | 0.0001 to 10 µM

The remaining lines, values ahead:

GI50 (BA/F3-FLT3-ITD + D835Y) | IC50 [1] | Compound
0.0001 to 10 µM | 0.0001 to 10 µM | CCn1cc(Nc2ncc(-c3ccc(CC(=O)Nc4cnc(C)c(C(F)(F)F)c4)cc3F)cn2)cn1 [Compound P-0248, 2-[4-[2-[(1-ethylpyrazol-4-yl)amino]pyrimidin-5-yl]-3-fluoro-phenyl]-N-[6-methyl-5-(trifluoromethyl)-3-pyridyl]acetamide]
0.0001 to 10 µM | 0.0001 to 10 µM | CCn1cc(Nc2ncc(-c3ccc(CC(=O)Nc4cnc(OC)c(C(F)(F)F)c4)cc3)cn2)cn1 [Compound P-0253, 2-[4-[2-[(1-ethylpyrazol-4-yl)amino]pyrimidin-5-yl]phenyl]-N-[6-methoxy-5-(trifluoromethyl)-3-pyridyl]acetamide]
0.0001 to 10 µM | 0.0001 to 10 µM | CCn1cc(Nc2ncc(-c3ccc(CC(=O)Nc4cncc(C(F)(F)F)c4)c(F)c3)cn2)cn1 [Compound P-0258, 2-[4-[2-[(1-ethylpyrazol-4-yl)amino]pyrimidin-5-yl]-2-fluoro-phenyl]-N-[5-(trifluoromethyl)-3-pyridyl]acetamide]
0.0001 to 10 µM | 0.0001 to 10 µM | COc1ncc(NC(=O)Cc2ccc(-c3cnc(Nc4cnn(C5CC5)c4)nc3)cc2F)cc1C(F)(F)F [Compound P-0241, 2-[4-[2-[(1-cyclopropylpyrazol-4-yl)amino]pyrimidin-5-yl]-2-fluoro-phenyl]-N-[6-methoxy-5-(trifluoromethyl)-3-pyridyl]acetamide]
0.0001 to 10 µM | 0.0001 to 10 µM | CCn1cc(Nc2ncc(-c3ccc(CC(=O)Nc4ccc(C(F)(F)F)nc4)cc3)cn2)cn1 [Compound P-0252, 2-[4-[2-[(1-ethylpyrazol-4-yl)amino]pyrimidin-5-yl]phenyl]-N-[6-(trifluoromethyl)-3-pyridyl]acetamide]
0.0001 to 10 µM | 0.0001 to 10 µM | O=C(Cc1ccc(-c2cnc(Nc3cnn(C4CC4)c3)nc2)cc1F)Nc1cncc(C(F)(F)F)c1 [Compound P-0238, 2-[4-[2-[(1-cyclopropylpyrazol-4-yl)amino]pyrimidin-5-yl]-2-fluoro-phenyl]-N-[5-(trifluoromethyl)-3-pyridyl]acetamide]
0.0001 to 10 µM | 0.0001 to 10 µM | CCn1cc(Nc2ncc(-c3ccc(CC(=O)Nc4cnc(OC)c(C(F)(F)F)c4)c(F)c3)cn2)cn1 [Compound P-0259, 2-[4-[2-[(1-ethylpyrazol-4-yl)amino]pyrimidin-5-yl]-2-fluoro-phenyl]-N-[6-methoxy-5-(trifluoromethyl)-3-pyridyl]acetamide]
0.0001 to 10 µM | 0.0001 to 10 µM | CCn1cc(Nc2ncc(-c3ccc(CC(=O)Nc4cnc(C)c(C(F)(F)F)c4)c(F)c3)cn2)cn1 [Compound P-0261, 2-[4-[2-[(1-ethylpyrazol-4-yl)amino]pyrimidin-5-yl]-2-fluoro-phenyl]-N-[6-methyl-5-(trifluoromethyl)-3-pyridyl]acetamide]
0.0001 to 10 µM | 0.0001 to 10 µM | O=C(Cc1ccc(-c2cnc(Nc3cnn(C4CC4)c3)nc2)cc1F)Nc1cc(C(F)(F)F)ccn1 [Compound P-0244, 2-[4-[2-[(1-cyclopropylpyrazol-4-yl)amino]pyrimidin-5-yl]-2-fluoro-phenyl]-N-[4-(trifluoromethyl)-2-pyridyl]acetamide]
0.0001 to 10 µM | 0.0001 to 10 µM | COCCn1cc(Nc2ncc(-c3ccc(CC(=O)Nc4ccc(C(F)(F)F)nc4)c(F)c3)cn2)cn1 [Compound P-0268, 2-[2-fluoro-4-[2-[[1-(2-methoxyethyl)pyrazol-4-yl]amino]pyrimidin-5-yl]phenyl]-N-[6-(trifluoromethyl)-3-pyridyl]acetamide]
0.0001 to 10 µM | 0.0001 to 10 µM | CCn1cc(Nc2ncc(-c3ccc(CC(=O)Nc4cc(C(F)(F)F)ccn4)c(F)c3)cn2)cn1 [Compound P-0255, 2-[4-[2-[(1-ethylpyrazol-4-yl)amino]pyrimidin-5-yl]-2-fluoro-phenyl]-N-[4-(trifluoromethyl)-2-pyridyl]acetamide]
0.0001 to 10 µM | 0.0001 to 10 µM | Cc1ncc(NC(=O)Cc2ccc(-c3cnc(Nc4cnn(C5CC5)c4)nc3)cc2F)cc1C(F)(F)F [Compound P-0239, 2-[4-[2-[(1-cyclopropylpyrazol-4-yl)amino]pyrimidin-5-yl]-2-fluoro-phenyl]-N-[6-methyl-5-(trifluoromethyl)-3-pyridyl]acetamide]
